The record followed here is ChEMBL document CHEMBL4043062, “Recent developments in the isolation, biological function, biosynthesis, and synthesis of phenazine natural products” (Bioorg Med Chem, 2017).

This experiment deals with Mycobacterium tuberculosis. Description: Antitubercular activity against rifampicin-resistant Mycobacterium tuberculosis ATCC 35338 harboring His-526-Tir mutation in rpoB gene after 7 days by Resazurin microtitre assay. Format: functional. On the technique in general: Resazurin is reduced to fluorescent resorufin, in cell work by metabolically active cells.

≈ marks a conversion by molar mass, not a printed value.

Take `C=CCC1Cc2c(c3ccccc3c3nc4ccccc4nc23)OC1(C)C` (stereo unspecified): the MIC – broadly, the lowest concentration that inhibits growth of the organism – amounted to 2.2 µM (≈ 0.78 µg/mL).
